Columns and labels:
[1] = Mucosal to serosal permeability through rabbit colon in vitro; type: in vitro ADME
[2] = cited from earlier work
[3] = Flow through dissolution of granules with pH gradient; type: physicochemical; conditions: for in vitro dissolution profile (in words): compared to the monomethanesulfonate salt (granules); for Percent of Eprosartan dissolved from the granules: flow through 8 mL/min, 37° C.
Description: A flow through dissolution apparatus at 8 mL/min flow rate, 37° C. and the following pH gradient

Row | increase of mucosal to serosal permeability through rabbit colon ([1]; in the presence of L-arginine as a solution, compared to the monomethanesulfonate alone) | in vitro dissolution profile (in words) [3] | in vitro dissolution profile (in words) ([3]; listed as arginine charge-neutralization-complex) | Percent of Eprosartan dissolved from the granules ([3]; time 0 min, pH gradient) | Percent of Eprosartan dissolved from the granules ([3]; time 45 min (pH 1.2 SGF step)) | Percent of Eprosartan dissolved from the granules ([3]; time 90 min (pH 3.0 step)) | Percent of Eprosartan dissolved from the granules ([3]; time 120 min (pH 4.0 step)) | Percent of Eprosartan dissolved from the granules ([3]; time 150 min (pH 5.0 step)) | Percent of Eprosartan dissolved from the granules ([3]; time 180 min (pH 6.0 step)) | Percent of Eprosartan dissolved from the granules ([3]; time 225 min (pH 7.5 step)) | in vitro permeability through rabbit colon (in words) ([1]; compared to the monomethanesulfonate salt) | Compound | bioavailability (in words) ([2]; human) | mean absolute bioavailability ([2]; human) | time to maximum concentration ([2]; human, fed state) | safety and tolerability in human clinical studies ([2]; up to doses of 800 mg per day)
1 | 50% |  |  |  |  |  |  |  |  |  |  | CCCCc1ncc(/C=C(\Cc2cccs2)C(=O)O)n1Cc1ccc(C(=O)O)cc1 [(E)-α-[2-n-Butyl-1-[(4-carboxyphenyl)methyl]-1H-imidazol-5-yl]methylene-2-thiophenepropionic acid monomethanesulfonate] | low and variable bioavailability | approximately 13% | 2.5 to 4 h | safe and well tolerated
2 |  | improved in vitro dissolution profile | better dissolution profile | 0.00% | 32.81% | 35.82% | 36.24% | 37.44% | 46.70% | 100.63% | increased in vitro permeability | CCCCc1ncc(/C=C(\Cc2cccs2)C(=O)O)n1Cc1ccc(C(=O)O)cc1.N=C(N)NCCC[C@H](N)C(=O)O [Arginyl charge-neutralization-complex, (E)-α-[2-n-butyl-1-[(4-carboxyphenyl)methyl]-1H-imidazol-5-yl]methylene-2-thiophenepropionic acid arginyl charge-neutralization-complex] |  |  |  | 

Source: patent publication US6630498B2 (SmithKline Beecham Corporation, priority 1997, dated 2003)
